Legend:
[1] = test system: IL-6 secretion by K562 cells; assay: IL-6 release, ELISA; type: cell-based, human; settings: for Il-6 Concentration in K562 Cells in 72 h: ELISA, culture medium, IC50 concentration, mean ± SD; for Reduction of the level of IL-6: K562, IC50 concentration, 72 h
Source text: Among many soluble factors present in the plasma and tissue microenvironment in patients with chronic lymphatic leukemia recent studies confirmed a presence of few types of interleukin (IL) including 4, 6 and 10. […] IL-6 is a member of a big family of cytokines and is predominantly excreted by T cells and macrophages to stimulate immune response during infection. Studies have shown that elevated levels of serum IL-6 is positively correlated with worse clinical outcomes in patients with different types of cancer, including leukemia. IL-6 also plays a key role in the chemoresistance of malignancies. Based on these findings we checked the effect of our new benzofuran derivatives on IL-6 secretion by K562 cells. […] On the other hand, K562 cells like other erythroid and megakaryocytic cells release IL-6 in a constitutive way.
K562 cells were treated with IC50 concentrations of the tested compounds. After 72 h, medium was collected and the IL-6 level was measured using an enzyme-linked immunosorbent assay, in accordance with the manufacturer’s protocol. The resulting data were expressed as mean ± SD from three independent experiments performed in triplicate.

[2] = test system: K562 cells (human chronic myelogenous leukemia); assay: MTT cytotoxicity assay, K562; type: cell-based; settings: 72 h incubation, mean ± SD
Experimental: The cell viability was analyzed at the following six concentrations of compounds: 5, 10, 20, 40, 60 and 100 µM after 72 h incubation.
Additionally, to determine the safety profile of the tested compounds, the therapeutic index (TI) (the ratio of IC50 value in HaCaT to cancer cells K562) was calculated. […] The goal of conducting the MTT assay in this research was to select benzofuran derivatives, which manage to reduce viability of cancer cells while exposing mild effects on normal healthy cells.
The cytotoxicity was evaluated by MTT reduction assay, which measures mitochondrial respiratory function. The test was performed based on the method described by Präbst et al.. Cells (1 × 10^4/well), in logarithmic phase, were seeded into 96-well plates in appropriate medium. After 24 h, cells were exposed to test compounds. […] After 72 h, the medium with the compounds was completely removed and MTT solution (0.5 mg/mL) in fresh medium without serum was added to each well. Plates with cells were incubated for 4 h at 37 °C in the dark. Then, MTT solution was removed and replenished with 0.1 mL DMSO: isopropanol (1:1) mixture to dissolve the generated formazan crystals. The optical density was measured with a […] GO (ThermoScientific) microplate reader at 570 nm. Replicates of three wells for each dosage, including vehicle control, were analyzed for each experiment. The experiments were conducted in triplicate. Control cells which were only treated with respective medium were used as the 100% viability value. […] Additionally, to determine the safety profile of the test compounds, therapeutic indexes (TI) (the ratio of IC50 values in HaCat to cancer cells (K562, PC3, SW620, Cack-1)) were calculated.

[3] = test system: caspases 3 and 7 in K562 cells; assay: Caspase-Glo 3/7 assay; type: cell-based, human; settings: IC50 concentration; for Effect on activity of caspases 3 and 7: 4 h incubation
Source text: ROS may play a different function in different stages of cancer. ROS might enhance cell growth and proliferation through the induction of various cell signaling pathways involving nuclear factor-kappa B (NF-κB) and STAT3, hypoxia-inducible factor 1α (HIF1α), kinases, growth factors, cytokines and many other proteins. On the other hand, the accumulation of ROS can induce cell damage and promote apoptosis. It has also been confirmed that elevated ROS concentration may cause mitochondrial membrane depolarization and facilitate increased cellular pro-apoptotic molecules releasing. […] As has been previously reported, lead compound 1,1′-[3-(bromomethyl)-5,6-dimethoxy-1-benzofuran-2,7-diyl] induces apoptosis in human leukemia cells. […] We used the Annexin V-FITC test, which allows us to detect the early structural changes in cellular membrane which occur during apoptosis. […] In the control sample almost 94% of cells were neither apoptotic nor necrotic. […] As has been previously written, the MTT test assesses the toxicity of tested compounds based on the activity of mitochondrial enzymes. […] Our results are in agreement with studies conducted by Liu et al. and Su et al. They report that the benzofuran derivatives ACDB and BL-038 induce apoptosis of human chandrosarcoma cells through ROS generation, mitochondria and endoplasmic reticulum dysfunction. BL-038 increases ROS production and dysregulates mitochondria membrane potential. This causes cytochrome C to be released from mitochondria and caspase activation. Similar effects have been observed for 2-amino-3-(2-chlorophenyl)-6-(4-dimethylaminophenyl) benzofuran-4-yl acetate (ACDB). It is well documented that disruption of the mitochondrial membrane as a result of, for example, the action of free radicals causes the release of cytochrome C. In the next step, cytochrome C binds to Apaf-1 (apoptotic protease activating factor 1) and it becomes the main component of apoptosome. The binding of cytochrome C with Apaf-1 is a critical step in apoptosome formation because it is responsible for the induction of intrinsic cell death pathway triggered by caspase activation. The observed increased concentration of hydrogen peroxide in cells exposed to both tested compounds might be a key factor for the molecular mechanism of apoptosis. Hydrogen peroxide can affect the redox state of cytochrome C. In addition to the effect of hydrogen peroxide on the iron atom in the cytochrome, it can also affect the activation of caspases. In order to estimate the effect of K562 exposure on the tested compounds as well as to confirm apoptotic properties of new benzofurans, we analyzed the effect of the compounds caspases 3 and 7 activities. […] We observed significant changes of activity after 48 h exposure. […] The caspase cascade responsible for executing cell death following cytochrome C release is well documented. Available research indicates, first of all, the key role of caspases 3 and 7 as mediators in the apoptosis through the intrinsic (mitochondrial) cell death pathway. […] They have shown that caspase 9 is responsible for mitochondrial morphological changes and ROS production by cleaving and activating Bid into tBid. Following caspase 9 activation, caspase 3 […] ROS generation and is essential for the efficient execution of apoptosis, whereas effector caspase 7 is needed for apoptotic cell detachment. […]
The induction of cell apoptosis was also analyzed by luminescent assay with the Caspases-Glo3/7 assay system (Promega). […]

[4] = test system: reactive oxygen species (H2O2) in K562 cells; assay: ROS generation (DHR 123 and DCFH-DA fluorescence); type: cell-based, human; settings: K562, IC50 concentration, 12 h incubation, DHR123 or DCF-DA, compared with untreated cells
Source text: The resulting data were expressed as mean ± SD from three independent experiments performed in triplicate.

SMILES	Il-6 Concentration in K562 Cells in 72 h [1]	Reduction of the level of IL-6 [1] [%]	IC50 [2] [µM]	Effect on activity of caspases 3 and 7 [3]	Increase of activity of caspases 3 and 7 ([3]; 12 h exposure) [%]	Increase of fluorescence intensity (ROS generation) [4]	Increase of activity of caspases 3 and 7 ([3]; 48 h exposure) [%]
COc1cc(OC)c2c(CBr)c(C(C)=O)oc2c1 [Compound 6, 1-[3-(Bromomethyl)-4,6-Dimethoxy-1-Benzofuran-2-yl]Ethanone]	5.791 ± 2.048	50	3.83 ± 0.6	did not affect the activity of caspases 3 and 7	26	two-fold increase in fluorescence intensity	
CCOc1cccc2oc(C(C)=O)c(CBr)c12 [Compound 8, 1-[3-(Bromomethyl)-4-Ethoxy-1-Benzofuran-2-yl]Ethanone]	6.958 ± 3.623	40	2.59 ± 0.88	did not affect the activity of caspases 3 and 7	27	statistically significant increase of fluorescence intensity	13

From publication PMC10888192, “New Derivatives of 1-(3-Methyl-1-Benzofuran-2-yl)Ethan-1-one: Synthesis and Preliminary Studies of Biological Activity” (International Journal of Molecular Sciences, 2024)
